For data set [1], the system named is N-methyl-N′-nitroguanidine-induced rat colonic adenocarcinoma. The experiment in a line: Tumour volume and wet weight, Example 1. The class given is in vivo, nude mice (C57BL/6JBom-nu). The following applies: single substance 10 μg/kg body weight every 12 hours for five days, vs controls; for tumour volume: P=0.4; for tumour weight: P=0.8. Here is the method: (§1) Female nude mice (C57BL/6JBom-nu, Bomholtgård Breeding and Research Centre, Denmark), 8 weeks old, with a mean body weight of 22.9 g (range 20.4-25.5), were used in this investigation. The mice were kept one to each cage in a laminar filtered airflow cabinet under pathogen-free conditions. The animals were kept under a constant temperature (22±2° C.) and relative humidity (55±5%), with 12 h dark/light cycles. They were fed on a standard pellet diet (R 34, Lactamin, Vadstena, Stockholm) and given water ad libitum. All experiments were performed by aseptic techniques under laminar airflow.
Twenty mice were injected s.c. with 100 μl cell suspension containing 2×10^6 viable cells of an N-methyl-N′-nitroguanidine-induced rat colonic adenocarcinoma (provided kindly by Professor L.-O. Hafström, Departnent of Surgery, University Hospital, Umeå, Sweden). After seven days, the greatest and least diameters of the tumours were measured and the volume was calculated with the use of the following formula:
volume=(mean diameter)^333 π/6.
(§2) The animals were divided into two groups of 10 mice each. The first group received s.c. injections of 100 μl saline solution containing a mixture of octreotide (Sandostatin®, Novartis), galanin (synthetic human galanin, Sigma, Stockholm), and serotonin (5-hydroxytryptamine, oxalate salt, Sigma) at 10 μg/kg body weight each. Injections were administered every 12 hours for five days. The second group served as controls and received only saline solution. Thirty-two mice were implanted with the tumour as described above and left for seven days. After measuring the tumour diameter, the animals were divided into four groups of eight. The first group was injected with 100 μl saline solution, the second with 100 μl saline solution containing 10 μg/kg body weight octreotide, the third group with 100 μl saline solution containing 10 μg/kg body weight galanin, and the last group was injected with 100 μl saline solution containing 10 μg/kg bodyweight serotonin. Injections were administered every 12 hours for five days.
(§3) At the end of the experiments, the animals were weighed and then decapitated. The tumours were dissected carefully and their diameters and weight were determined. Three tissue samples cut perpendicular to the surface were taken from each tumour, two from the periphery and one from the middle. The tissue samples were fixed overnight in 4% buffered paraformaldehyde, embedded in paraffin wax, and cut at 5 μm.

For data set [2] the test system is unchanged. The data set is described as follows: Apoptosis by in situ hybridisation, apoptotic index, Example 1. The following applies: single substance 10 μg/kg, five days; for Apoptotic index, second in situ hybridisation kit (mean±SD): controls 3.5±0.6, P=0.15; for Apoptotic index, first in situ hybridisation kit: vs controls, P=0.2. Format: in vivo, nude mice (C57BL/6JBom-nu). Here is the method:
as §2, §3
Apoptosis was detected by in situ hybridisation using two different kits (TA200 and TA5411) from R&D Systems Inc (Minneapolis, Minn. USA). Both kits detect DNA fragmentation, but with two different detection approaches. In the first kit, fragments of DNA were detected by incorporating modified nucleotides at the 3′OH ends of the fragments, using terminal deoxynucleotidyl transferase (TdT). The incorporated 5-bromodeoxyuridine (BrdU) was detected by a biotinylated anti-BrdU antibody. A streptavidin-conjugated horsradish peroxidase specifically bound to the biotinylated antibody. In the second kit, TdT added biotinylated nucleotides to the 3′OH ends of the DNA fragments. Again, a streptavidin-conjugated horseradish peroxidase specifically bound to the biotinylated DNA fragments. The peroxidase in both kits was detected by diaminobenzidine tetrahydrochloride (DAB). The sections were counter-stained with methyl green. […]
Apoptotic index was determined using the unbiased counting frames (as described in detail previously), adapted to computer image analysis (Palmqvist et al., 1998). […] About 40 fields from each tumour, spread randomly in sections from the three tissue samples, were measured. For each tumour about 200 positive and 200 negative nuclei were counted. The labelling index (LI) was calculated as follows: […]

For data set [3] the test system is unchanged. The experiment in a line: Proliferation (PCNA immunostaining), proliferation index, Example 1. As to conditions: single substance 10 μg/kg, five days; vs controls, P=0.8. Format: in vivo, nude mice (C57BL/6JBom-nu). Here is the method:
(§4) The animals were divided into two groups of 10 mice each. The first group received s.c. injections of 100 μl saline solution containing a mixture of octreotide (Sandostatin®, Novartis), galanin (synthetic human galanin, Sigma, Stockholm), and serotonin (5-hydroxytryptamine, oxalate salt, Sigma) at 10 μg/kg body weight each. Injections were administered every 12 hours for five days. The second group served as controls and received only saline solution. Thirty-two mice were implanted with the tumour as described above and left for seven days. After measuring the tumour diameter, the animals were divided into four groups of eight. […]
At the end of the experiments, the animals were weighed and then decapitated. The tumours were dissected carefully and their diameters and weight were determined. […]
To detect proliferation, the sections from the tumour tissue samples from all the animals were immnmostained with the avidin-biotin-complex (ABC) method (Dakopatts, Glostrup, Denmark), as described in detail earlier (E1-Salhy et al., 1993). […] Peroxidase was detected by immersing the sections in 50 ml Tris-buffer containing 25 mg diaminobenzidine tetrahydrochloride (DAB) and 10 μl of 30% H2O2 followed by slight counter-staining in Mayer's haematoxylin. […] The proliferating index was determined as described for apoptosis.

The test system of data set [4] is rat colonic cancer cells. The following applies: in vivo; cited from earlier work.
The test system of data set [5] is asymptomatic advanced colon carcinoma. As to conditions: about 7 μ/kg/d; patients; cited from earlier work.
A short description of data set [6]: Deaths of animals during treatment, Example 1. The class given is in vivo, nude mice (C57BL/6JBom-nu). As to conditions: single substance 10 μg/kg every 12 hours; dissection: metastasis / abdominal carcinosis. Here is the method:
as §1, §4

The values below come from patent publication US6518246B1, “Pharmaceutical composition and method for the treatment of neoplastic cells” (priority 2001, dated 2003).

Regarding `NCCc1c[nH]c2ccc(O)cc12` [serotonin, 5-hydroxytryptamine], in data set [1], the tumour volume entry is listed as “no significant difference” and the tumour weight entry is “no significant difference”. Further, in data set [2], the “Apoptotic index, second in situ hybridisation kit (mean±SD)” value is listed as 4±0.5 and the “Apoptotic index, first in situ hybridisation kit” value is “no difference”. Further, the tumour proliferation index result in data set [3] is reported as “Neither was there any difference”. In addition, in data set [4], the “mitotic rate of rat colonic cancer cells” value is “increase”.
Regarding octreotide, in data set [1], the tumour volume entry is given as “no significant difference” and the tumour weight result is given as “no significant difference”. Also, in data set [2], the “Apoptotic index, second in situ hybridisation kit (mean±SD)” value is 3±1.1 and the “Apoptotic index, first in situ hybridisation kit” value was “no difference”. In addition, in data set [3], the tumour proliferation index result is given as “Neither was there any difference”. Also, the “progression of the disease” value in data set [5] is “no effect”.
Consider `CC(C)C[C@H](NC(=O)CNC(=O)[C@H](CC(N)=O)NC(=O)[C@H](CCCCN)NC(=O)[C@H](CC(=O)O)NC(=O)[C@H](CO)NC(=O)[C@H](Cc1ccccc1)NC(=O)[C@H](CO)NC(=O)[C@H](CCCNC(=N)N)NC(=O)[C@H](Cc1cnc[nH]1)NC(=O)[C@H](CC(N)=O)NC(=O)CNC(=O)[C@@H](NC(=O)[C@H](C)NC(=O)[C@H](Cc1cnc[nH]1)NC(=O)[C@@H]1CCCN1C(=O)CNC(=O)[C@H](CC(C)C)NC(=O)[C@H](CC(C)C)NC(=O)[C@H](Cc1ccc(O)cc1)NC(=O)CNC(=O)[C@H](C)NC(=O)[C@H](CO)NC(=O)[C@H](CC(N)=O)NC(=O)[C@H](CC(C)C)NC(=O)[C@@H](NC(=O)[C@H](Cc1c[nH]c2ccccc12)NC(=O)CN)[C@@H](C)O)C(C)C)C(=O)N[C@H](C(=O)N[C@@H](CO)C(=O)O)[C@@H](C)O` [galanin], for which the “deaths during the experiment” value in data set [6] was “Two mice in the group treated with galanin died”.
